Where a name gives a salt, the structure may show the parent alone. Read-outs that look alike come from different tables or passages of the source.
Tested on: Acinetobacter baumannii ATCC17961
Assay: 90% growth inhibitory concentration (IC90) determination, antimicrobial susceptibility testing
Format: cell-based
Conditions: read-out: ATCC 17961 IC90
In short: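 Twofold serial dilutions (e.g. 50 to 0.097 μM final) in Iso-Sensitest broth, inoculated at ~5×10^5 CFU/ml and incubated at 35±2 °C for 16 h with OD600 read every minute. IC90 taken from growth inhibition during the logarithmic phase.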

[1] = Acinetobacter baumannii, ATCC17961, 16 h, 90% growth inhibition, Iso-Sensitest broth, OD 600 nm over 16 h, 35±2° C.

Row | IC90 [1] | SMILES | other results
1 | 86.2 nM | CCc1cc(Nc2nccn3c(-c4ccc(OC)c(F)c4F)cnc23)ccc1C(=O)NCCCNC(=O)C1CC[N+](C)(CC2CNC2)CC1 (stereo not drawn) [Example 129, 1-(Azetidin-3-ylmethyl)-N-[3-[[4-[[3-(2,3-difluoro-4-methoxy-phenyl)imidazo[1,2-a]pyrazin-8-yl]amino]-2-ethyl-benzoyl]amino]propyl]-1-methyl-piperidin-1-ium-4-carboxamide bis(trifluoroacetate)] | 
2 | 44.7 nM | COc1ccc(-c2cnc3c(Nc4ccc(C(=O)N5CCN(C(=O)C[N+](C)(C)C)CC5)c(Cl)c4)nccn23)c(F)c1F [Example 12, 2-(4-(2-Chloro-4-((3-(2,3-difluoro-4-methoxyphenyl)imidazo[1,2-a]pyrazin-8-yl)amino)benzoyl)piperazin-1-yl)-N,N,N-trimethyl-2-oxoethan-1-aminium Iodide] | 
3 | 434 nM | CCc1cc(Nc2nccn3c(-c4ccc(OC)c(F)c4F)cnc23)ccc1C(=O)NCCCCC[N+](C)(CCCC(=O)O)CC1CNC1 (stereo not drawn) [Example 107, Azetidin-3-ylmethyl-(3-carboxypropyl)-[5-[[4-[[3-(2,3-difluoro-4-methoxy-phenyl)imidazo[1,2-a]pyrazin-8-yl]amino]-2-ethyl-benzoyl]amino]pentyl]-methyl-ammonium 2,2,2-trifluoroacetate] | 
4 | 909 nM | CCc1cc(Nc2nccn3c(-c4ccc(OC(F)F)c(F)c4F)cnc23)ccc1C(=O)N1CCN(C(=O)C2CC[N+](C)(CC3CNC3)CC2)CC1C(=O)OC (stereo not drawn) [Example 93, Methyl 4-[1-(azetidin-3-ylmethyl)-1-methyl-piperidin-1-ium-4-carbonyl]-1-[4-[[3-[4-(difluoromethoxy)-2,3-difluoro-phenyl]imidazo[1,2-a]pyrazin-8-yl]amino]-2-ethyl-benzoyl]piperazine-2-carboxylate bis(2,2,2-trifluoroacetate)] | 
5 | 546 nM | C[N+](C)(C)CC(=O)N1CCN(C(=O)c2ccc(Nc3nccn4c(-c5cn(CC#N)nc5C(F)(F)F)cnc34)cc2Cl)CC1 [Example 65, [2-[4-[2-Chloro-4-[[3-[1-(cyanomethyl)-3-(trifluoromethyl)pyrazol-4-yl]imidazo[1,2-a]pyrazin-8-yl]amino]benzoyl]piperazin-1-yl]-2-oxo-ethyl]-trimethyl-ammonium Formate] | 
6 |  | CCc1cc(Nc2nccn3c(-c4ccc(OC(F)F)c(F)c4F)cnc23)ccc1C(=O)NCCCNC(=O)C1CC[N+](C)(CC2CCNC2)CC1 (stereo not drawn) [Example 82, N-[3-[[4-[[3-[4-(Difluoromethoxy)-2,3-difluoro-phenyl]imidazo[1,2-a]pyrazin-8-yl]amino]-2-ethyl-benzoyl]amino]propyl]-1-methyl-1-(pyrrolidin-3-ylmethyl)piperidin-1-ium-4-carboxamide bis (2,2,2-trifluoroacetate)] | IC90 (Acinetobacter baumannii, ATCC17961, 16 h): 110 nM
7 | 955 nM | CCc1cc(Nc2nccn3c(-c4ccc(OC)c(F)c4F)cnc23)ccc1C(=O)NC1CC[N+](C)(CC2CNC2)CC1 (stereo not drawn) [Example 136, N-[1-(Azetidin-3-ylmethyl)-1-methyl-piperidin-1-ium-4-yl]-4-[[3-(2,3-difluoro-4-methoxy-phenyl)imidazo[1,2-a]pyrazin-8-yl]amino]-2-ethyl-benzamide bis(2,2,2-trifluoroacetate)] | 
8 | 2480 nM | CCc1cc(Nc2nccn3c(-c4cn(CC(F)F)nc4C(F)(F)F)cnc23)ccc1C(=O)NCCCCC[N+](C)(C)CC(=O)O [Example 113, Carboxymethyl-[5-[[4-[[3-[1-(2,2-difluoroethyl)-3-(trifluoromethyl)pyrazol-4-yl]imidazo[1,2-a]pyrazin-8-yl]amino]-2-ethyl-benzoyl]amino]pentyl]-dimethyl-ammonium Formate] | 
9 | 634 nM | CCc1cc(Nc2nccn3c(-c4ccc(OC(F)F)c(F)c4F)cnc23)ccc1C(=O)NCCCCC[N+](C)(CC1CNC1)CC1CNC1 [Example 89, Bis(azetidin-3-ylmethyl)-[5-[[4-[[3-[4-(difluoromethoxy)-2,3-difluoro-phenyl]imidazo[1,2-a]pyrazin-8-yl]amino]-2-ethyl-benzoyl]amino]pentyl]-methyl-ammonium bis(2,2,2-trifluoroacetate)] | 
10 | 132 nM | CCc1cc(Nc2nccn3c(-c4ccc(OC(F)F)c(F)c4F)cnc23)ccc1C(=O)N1CCN(C(=O)C2CC[N+](C)(CC3CCNC3)CC2)CC1 (stereo not drawn) [Example 84, [4-[[3-[4-(difluoromethoxy)-2,3-difluoro-phenyl]imidazo[1,2-a]pyrazin-8-yl]amino]-2-ethyl-phenyl]-[4-[1-methyl-1-(pyrrolidin-3-ylmethyl)piperidin-1-ium-4-carbonyl]piperazin-1-yl]methanone bis(2,2,2-trifluoroacetate)] | 
11 | 77.9 nM | C[N+]1(CC2CCNC2)CCC(C(=O)N2CCN(C(=O)c3ccc(Nc4nccn5c(-c6ccc(OC(F)F)c(F)c6F)cnc45)cc3F)CC2)CC1 (stereo not drawn) [Example 103, [4-[[3-[4-(Difluoromethoxy)-2,3-difluoro-phenyl]imidazo[1,2-a]pyrazin-8-yl]amino]-2-fluoro-phenyl]-[4-[1-methyl-1-(pyrrolidin-3-ylmethyl)piperidin-1-ium-4-carbonyl]piperazin-1-yl]methanone 2,2,2-trifluoroacetate] | 
12 | 114 nM | CCc1cc(Nc2nccn3c(-c4ccc(OC)c(F)c4F)cnc23)ccc1C(=O)NCCCNC(=O)CC1CC[N+](C)(CC2CNC2)CC1 (stereo not drawn) [Example 131, N-[3-[[2-[1-(Azetidin-3-ylmethyl)-1-methyl-piperidin-1-ium-4-yl]acetyl]amino]propyl]-4-[[3-(2,3-difluoro-4-methoxy-phenyl)imidazo[1,2-a]pyrazin-8-yl]amino]-2-ethyl-benzamide bis(2,2,2-trifluoroacetate)] | 
13 | 95.9 nM | CCc1cc(Nc2nccn3c(-c4ccc(OC(F)F)c(F)c4F)cnc23)ccc1C(=O)NCC1C2C[N+](C)(CC3CNC3)CC12 (stereo not drawn) [Example 80, N-[[3-(azetidin-3-ylmethyl)-3-methyl-3-azoniabicyclo[3.1.1]hexan-6-yl]methyl]-4-[[3-[4-(difluoromethoxy)-2,3-difluoro-phenyl]imidazo[1,2-a]pyrazin-8-yl]amino]-2-ethyl-benzamide bis(2,2,2-trifluoroacetate)] | 
14 | 343 nM | CCc1cc(Nc2nccn3c(-c4ccc(OC)c(F)c4F)cnc23)ccc1C(=O)NCC1CC[N+](CC(=O)O)(CC2CNC2)CC1 (stereo not drawn) [Example 128, 2-[1-(Azetidin-3-ylmethyl)-4-[[[4-[[3-(2,3-difluoro-4-methoxy-phenyl)imidazo[1,2-a]pyrazin-8-yl]amino]-2-ethyl-benzoyl]amino]methyl]piperidin-1-ium-1-yl]acetic acid bis(2,2,2-trifluoroacetate)] | 
15 | 40.3 nM | COc1ccc(-c2cnc3c(Nc4ccc(C(=O)N[C@H]5C[C@@H](NC(=O)C[N+](C)(C)C)C5)c(C)c4)nccn23)c(F)c1F [Example 72, 2-(((1s,3s)-3-(4-((3-(2,3-Difluoro-4-methoxyphenyl)imidazo[1,2-a]pyrazin-8-yl)amino)-2-methylbenzamido)cyclobutyl)amino)-N,N,N-trimethyl-2-oxoethan-1-aminium Chloride] | 
16 |  | CCc1cc(Nc2nccn3c(-c4ccc(OC)c(F)c4F)cnc23)ccc1C(=O)NCC[C@H](NC(=O)C1CC[N+](C)(CC2CNC2)CC1)C(=O)OC (mixture of isomers) [Example 121, Methyl (2S)-2-[[1-(azetidin-3-ylmethyl)-1-methyl-piperidin-1-ium-4-carbonyl]amino]-4-[[4-[[3-(2,3-difluoro-4-methoxy-phenyl)imidazo[1,2-a]pyrazin-8-yl]amino]-2-ethyl-benzoyl]amino]butanoate formate 2,2,2-trifluoroacetate (Mixed Salt)] | IC90 (90% growth inhibition, Iso-Sensitest broth, OD 600 nm over 16 h, 35±2° C.): 854 nM
17 | 65.8 nM | CCOC(=O)C[N+](C)(C)CCOCCNC(=O)c1ccc(Nc2nccn3c(-c4ccc(OC)c(F)c4F)cnc23)cc1CC [Example 75, N-(2-(2-(4-((3-(2,3-Difluoro-4-methoxyphenyl)imidazo[1,2-a]pyrazin-8-yl)amino)-2-ethylbenzamido)ethoxy)ethyl)-2-ethoxy-N,N-dimethyl-2-oxoethan-1-aminium Formate] | 
18 | 223 nM | CCc1cc(Nc2nccn3c(-c4ccc(OC(F)F)c(F)c4F)cnc23)ccc1C(=O)NCCNC(=O)C1CC[N+](C)(CC2CCNC2)CC1 (stereo not drawn) [Example 102, N-[2-[[4-[[3-[4-(Difluoromethoxy)-2,3-difluoro-phenyl]imidazo[1,2-a]pyrazin-8-yl]amino]-2-ethyl-benzoyl]amino]ethyl]-1-methyl-1-(pyrrolidin-3-ylmethyl)piperidin-1-ium-4-carboxamide bis(2,2,2-trifluoroacetate)] | 
19 | 263 nM | COc1ccc(-c2cnc3c(Nc4ccc(C(=O)N[C@H]5CC[C@H](NC(=O)C[N+](C)(C)C)CC5)c(C)c4)nccn23)c(F)c1F [Example 69, 2-(((1r,4r)-4-(4-((3-(2,3-Difluoro-4-methoxyphenyl)imidazo[1,2-a]pyrazin-8-yl)amino)-2-methylbenzamido)cyclohexyl)amino)-N,N,N-trimethyl-2-oxoethan-1-aminium Chloride] | 
20 | 725 nM | CCc1cc(Nc2nccn3c(-c4ccc(OC(F)F)c(F)c4F)cnc23)ccc1C(=O)N1CC2(C1)CN(C(=O)C1CC[N+](C)(CC3CCNC3)CC1)C2 (stereo not drawn) [Example 95, [4-[[3-[4-(difluoromethoxy)-2,3-difluoro-phenyl]imidazo[1,2-a]pyrazin-8-yl]amino]-2-ethyl-phenyl]-[2-[1-methyl-1-(pyrrolidin-3-ylmethyl)piperidin-1-ium-4-carbonyl]-2,6-diazaspiro[3.3]heptan-6-yl]methanone bis(2,2,2-trifluoroacetate)] | 
21 | 67.7 nM | CCc1cc(Nc2nccn3c(-c4ccc(OC)c(F)c4F)cnc23)ccc1C(=O)NC1CN(C(=O)C[N+](C)(C)CC(N)=O)C1 [Example 71, 2-Amino-N-(2-(3-(4-((3-(2,3-difluoro-4-methoxyphenyl)imidazo[1,2-a]pyrazin-8-yl)amino)-2-ethylbenzamido)azetidin-1-yl)-2-oxoethyl)-N,N-dimethyl-2-oxoethan-1-aminium Formate] | 

From US20230141600A1, “IMIDAZOPYRAZINE DERIVATIVES” (priority 2020, published 2023)
